According to patent US20230146795A1, “ENHANCEMENT OF ANTI-TUMOR ACTIVITY OF SHP2 INHIBITOR PYRIMIDINONE IN COMBINATION WITH NOVEL CANCER MEDICINES IN CANCERS” (TAIHO PHARMACEUTICAL CO., LTD., priority 2020, published 2023):

Experiments:
Assay type in all cases: cell-based
[1] = test system: RT4; assay: Anti-proliferation assay (CellTiter-Glo 2.0), combination index, RT4; conditions: for Description: combination effect
Description: (§1) Cell lines were obtained from ATCC or Health Science Research Resources Bank.
(§2) Each cell lines were collected by ordinary method, then suspended in indicated medium containing 10% fetal bovine serum in table 3. The number of cells seeded per well was set to 500 cells/20 μL. […] The concentration of each anti-cancer reagents set to 8 concentrations including 0 nM. After adding the medicine to the cells, the cells were further incubated at 37° C. for 3 days under 5% CO2. Cell survival rates were calculated by adding 20 μL of CellTiter-Glo(registered trademark) 2. 0 (Promega) solution to each well, incubating the cells at room temperature for 10 minutes, and then measuring the chemiluminescence intensity of each well using a plate reader (ARVO).
(§3) A combination index (CI) value at each combined concentration of the medicines was determined.

[2] = test system: MKN45; assay: Anti-proliferation assay (CellTiter-Glo 2.0), combination index, MKN45; conditions: for Description: combination effect
Description: as §1, §2, §3

[3] = test system: NCI-H358; assay: Anti-proliferation assay (CellTiter-Glo 2.0), combination index, NCI-H358
Description: as §1, §2, §3

[4] = Compound 1 13.7 + combination drug 123 nmol/L (1:9)
[5] = Compound 1 41.2 + combination drug 370 nmol/L (1:9)
[6] = Compound 1 123 + combination drug 1110 nmol/L (1:9)
[7] = Compound 1 370 + combination drug 3330 nmol/L (1:9)
[8] = Compound 1 1110 + combination drug 10000 nmol/L (1:9)
[9] = Compound 1:combination drug molar ratio 1:9
[10] = Compound 1 123 + combination drug 3330 nmol/L (1:27)
[11] = Compound 1 4.57 nmol/L + SN-38 0.69 nmol/L, molar ratio 1:0.1
[12] = Compound 1 13.7 nmol/L + SN-38 2.06 nmol/L, molar ratio 1:0.1
[13] = Compound 1 41.2 nmol/L + SN-38 6.17 nmol/L, molar ratio 1:0.1
[14] = Compound 1 123 nmol/L + SN-38 18.5 nmol/L, molar ratio 1:0.1
[15] = Compound 1 370 nmol/L + SN-38 55.6 nmol/L, molar ratio 1:0.1
[16] = Compound 1 1110 nmol/L + SN-38 167 nmol/L, molar ratio 1:0.1
[17] = Compound 1 3330 nmol/L + SN-38 500 nmol/L, molar ratio 1:0.1
[18] = Compound 1 41.2 nmol/L + SN-38 2.06 nmol/L, molar ratio 1:0.05
[19] = Compound 1 123 nmol/L + SN-38 6.17 nmol/L, molar ratio 1:0.05
[20] = Compound 1 370 nmol/L + SN-38 18.5 nmol/L, molar ratio 1:0.05
[21] = Compound 1 1110 nmol/L + SN-38 55.6 nmol/L, molar ratio 1:0.05
[22] = Compound 1 41.2 nmol/L + Doxorubicin 13.7 nmol/L, molar ratio 1:0.3
[23] = Compound 1 123 nmol/L + Doxorubicin 41.2 nmol/L, molar ratio 1:0.3
[24] = Compound 1 370 nmol/L + Doxorubicin 123 nmol/L, molar ratio 1:0.3
[25] = Compound 1 3330 nmol/L + Doxorubicin 1110 nmol/L, molar ratio 1:0.3
[26] = Compound 1 10000 nmol/L + Doxorubicin 3330 nmol/L, molar ratio 1:0.3
[27] = Compound 1 123 nmol/L + Doxorubicin 123 nmol/L, molar ratio 1:1
[28] = Compound 1 370 nmol/L + Doxorubicin 370 nmol/L, molar ratio 1:1
[29] = Compound 1 1110 nmol/L + Doxorubicin 1110 nmol/L, molar ratio 1:1
[30] = Compound 1 3330 nmol/L + Doxorubicin 370 nmol/L, molar ratio 1:0.1
[31] = Compound 1 10000 nmol/L + Doxorubicin 1110 nmol/L, molar ratio 1:0.1
[32] = Compound 1 4.57 nmol/L + Cisplatin 370 nmol/L, molar ratio 1:81
[33] = Compound 1 13.7 nmol/L + Cisplatin 1110 nmol/L, molar ratio 1:81
[34] = Compound 1 41.2 nmol/L + Cisplatin 1110 nmol/L, molar ratio 1:27
[35] = Compound 1 123 nmol/L + Cisplatin 3330 nmol/L, molar ratio 1:27
[36] = Compound 1 370 nmol/L + Cisplatin 10000 nmol/L, molar ratio 1:27
[37] = Compound 1 370 nmol/L + FTD 123 nmol/L, molar ratio 1:0.3
[38] = Compound 1 1110 nmol/L + FTD 370 nmol/L, molar ratio 1:0.3
[39] = Compound 1 3330 nmol/L + FTD 1110 nmol/L, molar ratio 1:0.3
[40] = Compound 1 123 nmol/L + FTD 3330 nmol/L, molar ratio 1:27
[41] = Compound 1 370 nmol/L + FTD 10000 nmol/L, molar ratio 1:27

With `COc1cc2c(Oc3ccc4[nH]c(C)cc4c3F)ccnc2cc1OCC1(N)CC1` [Anlotinib] the CI [1, 4] was 0.501, the Fa [1, 4] was 0.3362 and the CI [1, 5] was 0.444. For the same compound, the Fa [1, 5] was 0.5003, the CI [1, 6] was 0.387 and the Fa [1, 6] was 0.7040. The CI [1, 7] was 0.326, the Fa [1, 7] was 0.8765 and the CI [1, 8] was 0.316. The Fa [1, 8] was 0.9539, the “Description (combinatory effect by CI)” value [1, 9] was “Synergy (0.3-0.7)” and the CI [2, 10] was 0.755. The Fa [2, 10] was 0.7514, the CI [3, 5] was 0.557 and the Fa [3, 5] was 0.3217. The CI [3, 6] was 0.416, the Fa [3, 6] was 0.5609 and the CI [3, 7] was 0.390. It also gave a Fa [3, 7] of 0.7902, a CI [3, 8] of 0.488 and a Fa [3, 8] of 0.9031. The “Description (combinatory effect by CI)” value [3, 9] was “Synergy (0.3-0.7)”.
SN-38 gave a CI [1, 11] of 0.322, a Fa [1, 11] of 0.2202 and a CI [1, 12] of 0.554. It also gave a Fa [1, 12] of 0.2912, a CI [1, 13] of 0.621 and a Fa [1, 13] of 0.4442. For the same compound, the CI [1, 14] was 0.472, the Fa [1, 14] was 0.6700 and the CI [1, 15] was 0.554. For the same compound, the Fa [1, 15] was 0.7937, the CI [1, 16] was 0.310 and the Fa [1, 16] was 0.9240. For the same compound, the CI [1, 17] was 0.064, the Fa [1, 17] was 0.9872 and the CI [2, 18] was 0.750. It also gave a Fa [2, 18] of 0.3061, a CI [2, 19] of 0.390 and a Fa [2, 19] of 0.6496. For the same compound, the CI [2, 20] was 0.261, the Fa [2, 20] was 0.8647 and the CI [2, 21] was 0.536. The Fa [2, 21] was 0.8972.
`COc1cccc2c1C(=O)c1c(O)c3c(c(O)c1C2=O)C[C@@](O)(C(=O)CO)C[C@@H]3O[C@H]1C[C@H](N)[C@H](O)[C@H](C)O1` [Doxorubicin] was tested, and the CI [1, 22] was 0.866, the Fa [1, 22] was 0.2952 and the CI [1, 23] was 0.403. The Fa [1, 23] was 0.5056, the CI [1, 24] was 0.554 and the Fa [1, 24] was 0.6537. The CI [1, 25] was 0.191, the Fa [1, 25] was 0.9964 and the CI [1, 26] was 0.063. It also gave a Fa [1, 26] of 0.9999, a CI [2, 27] of 0.596 and a Fa [2, 27] of 0.5818. The CI [2, 28] was 0.267, the Fa [2, 28] was 0.8738 and the CI [2, 29] was 0.361. It also gave a Fa [2, 29] of 0.9317, a CI [3, 30] of 0.845 and a Fa [3, 30] of 0.7275. It also gave a CI [3, 31] of 0.249 and a Fa [3, 31] of 0.9706.
Work on `N.N.[Cl][Pt][Cl]` [Cisplatin] yielded a CI [1, 32] of 0.632, a Fa [1, 32] of 0.0886 and a CI [1, 33] of 0.539. The Fa [1, 33] was 0.2585, the Description ([1]; Compound 1 + Cisplatin, molar ratio 1:81) was “Synergy (0.3-0.7)” and the CI [2, 34] was 0.694. For the same compound, the Fa [2, 34] was 0.2057, the CI [2, 35] was 0.626 and the Fa [2, 35] was 0.5148. For the same compound, the CI [2, 36] was 0.681, the Fa [2, 36] was 0.8006 and the Description ([2]; Compound 1 + Cisplatin, molar ratio 1:27) was “Synergy (0.3-0.7)”.
For `O=c1[nH]c(=O)n([C@H]2C[C@H](O)[C@@H](CO)O2)cc1C(F)(F)F` [FTD], the CI [1, 37] was 0.468, the Fa [1, 37] was 0.4667 and the CI [1, 38] was 0.676. The Fa [1, 38] was 0.6009, the CI [1, 39] was 0.618 and the Fa [1, 39] was 0.7931. The Description ([1]; Compound 1 + FTD, molar ratio 1:0.3) was “Synergy (0.3-0.7)”, the CI [2, 40] was 0.716 and the Fa [2, 40] was 0.6654. For the same compound, the CI [2, 41] was 0.494, the Fa [2, 41] was 0.8785 and the Description ([2]; Compound 1 + FTD, molar ratio 1:27) was “Synergy (0.3-0.7)”.
